Source: US9238034B2, “FN14 antagonists and therapeutic uses thereof” (THE TRANSLATIONAL GENOMICS RESEARCH INSTITUTE, priority 2013, dated 2016)
Like-named read-outs stand apart in the source and are kept apart here.

Biological target: T1, Fn14-TWEAK binding (Homo sapiens, UniProt Q9NP84)
T1 construct: the human Fc fragment-tagged Fn14 extracellular domain (R&D Systems) was captured; purchased R&D Systems (Fn14-Fc); Peprotech (recombinant TWEAK)
T1 sequence (Q9NP84 28-80 limits assumed): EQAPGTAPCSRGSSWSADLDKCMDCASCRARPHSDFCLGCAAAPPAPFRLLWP
Assay: Double sandwich ELISA small molecule screening of TWEAK binding to captured Fn14-Fc
Experimental: Double Sandwich ELISA. sTWEAK and sTWEAK variant proteins were synthesized as described above. The expression level of each IVTT synthesized sTWEAK protein was analyzed by western blot analysis and used in approximately equal amounts in the ELISA. To assay the binding of wild type sTWEAK and sTWEAK variants to Fn14, the human Fc fragment-tagged Fn14 extracellular domain (R&D Systems) was captured in an Immuno 96-microwell white plate by adding 100 μL of 0.025 μg/mL Fn14-Fc to wells coated with goat anti-human Fcγ fragment specific monoclonal antibody. After capture, the wells were washed 3× with Dulbecco's Phosphate Buffered Saline (DPBS) containing 0.05% Tween-20. Unbound sites were blocked by addition of 100 μL of blocking solution containing 0.05% Tween-20, 1% BSA, and 3% normal goat serum (NGS) in DPBS for 1 hr at room temperature. 0.01 μL of sTWEAK or sTWEAK variant made with the human IVTT kit or 2 μL of sTWEAK or sTWEAK variant made with the rabbit IVTT kit was diluted in 100 μL of sample diluent (DPBS+1% BSA+0.005% Tween-20) and then added to the wells for 2 hr followed by addition of 100 μL of 50 ng/mL biotinylated TWEAK detection antibody (R&D Systems) in sample diluent. Following incubation for additional 2 hr at room temperature, wells were washed 3× with DPBS containing 0.05% Tween-20 and bound biotinylated TWEAK antibody was detected by incubation with an HRP-conjugated streptavidin. The total luminescent signal was obtained using Femto ELISA kit (Pierce Biochemical) and compared to the standard curve signal obtained from the binding of 0-4000 pg/mL recombinant TWEAK (Peprotech inc) to Fn14-Fc. Using 5-parameter logistic curve fitting for standard curve analysis (Sigmaplot 11.0, SyStat Software Inc.), binding of sTWEAK or TWEAK variant to Fn14-Fc was determined. The data represents that observed for at least four replicate assays.
The small molecule screening was performed using the ELISA assay described above with minor modifications. Briefly, after capturing Fn14-Fc in the microwell plate, 80 μl of drug solution in sample diluent was added to desired wells and incubated for 2 hrs at room temperature. Subsequently, 20 μL of 2500 pg/mL (5×) TWEAK was added to each well to achieve final TWEAK concentration of 500 pg/mL and incubated for additional 2 hr at room temperature. Bound TWEAK was detected as described in the protocol above. All small molecule inhibitors were screened at 25 μM final concentration (final DMSO concentration of 0.125%) in duplicate. Cyclohexamide, a non-specific small molecule, at 25 μM concentration was used as negative control. The anti-Fn14 antibody ITEM-4, added at 2.5 μg/mL, was used as a positive control for complete blockade of TWEAK binding. Reduction in TWEAK binding due to compound addition or controls was calculated by using standard curve (Separate standard curve was obtained for every screening plate).

[1] = Table 3, first round of screening, 25 μM, average of duplicate, read-out: % Reduction in TWEAK Binding, Average
[2] = Table 3, first round of screening, 25 μM, replicate 1, read-out: % Reduction in TWEAK Binding, Data 1
[3] = Table 3, first round of screening, 25 μM, replicate 2, read-out: % Reduction in TWEAK Binding, Data 2
[4] = Table 5, 25 μM, average of duplicate, read-out: % Reduction in TWEAK Binding, Average
[5] = Table 5, 25 μM, replicate 1, read-out: % Reduction in TWEAK Binding, Data 1
[6] = Table 5, 25 μM, replicate 2, read-out: % Reduction in TWEAK Binding, Data 2
[7] = first round of screening, 25 μM, read-out: average inhibition in TWEAK-Fn14 binding
[8] = Table 4, second screening iteration, 25 μM, average of duplicate, read-out: % Reduction in TWEAK Binding, Average
[9] = Table 4, second screening iteration, 25 μM, replicate 1, read-out: % Reduction in TWEAK Binding, Data 1
[10] = Table 4, second screening iteration, 25 μM, replicate 2, read-out: % Reduction in TWEAK Binding, Data 2

inhibition at 25 µM [1] | inhibition at 25 µM [2] | inhibition at 25 µM [3] | inhibition at 25 µM [4] | inhibition at 25 µM [5] | inhibition at 25 µM [6] | inhibition at 25 µM [7] | inhibition at 25 µM [8] | inhibition at 25 µM [9] | inhibition at 25 µM [10] | inhibition at 25 µM (first round of screening, 25 μM, read-out: single point activities / individual data points, inhibition of the Fn14-TWEAK interaction) | % Reduction in TWEAK Binding, Average (Table 4, second screening iteration, 25 μM, average of duplicate) | % Reduction in TWEAK Binding, Data 1 (Table 4, second screening iteration, 25 μM, replicate 1) | % Reduction in TWEAK Binding, Data 2 (Table 4, second screening iteration, 25 μM, replicate 2) | SMILES
20.4% | 26.3% | 14.5% | 20.4% | 26.3% | 14.5% | > 15% |  |  |  |  |  |  |  | O=C(CSc1nc2c(cnn2-c2ccccc2)c(=O)[nH]1)NCc1ccc2c(c1)OCO2 [Compound G873-0032]
15% | 23.1% | 6.98% | 15% | 23.1% | 6.98% | > 15% |  |  |  |  |  |  |  | Cc1cc(C2CCCN2C(=O)c2cc(-c3ccc4c(c3)OCO4)on2)on1 (stereo not drawn) [Compound J004-1091]
 |  |  | 16.6% | 17.2% | 16% |  | 16.6% | 17.2% | 16% |  |  |  |  | COc1cccc(NC(=O)CSc2nnc(-c3ccc(F)cc3)c(-c3ccc(F)cc3)n2)c1 [Compound K216-0906]
 |  |  | 24% | 23.8% | 24.3% |  | 24% | 23.8% | 24.3% |  |  |  |  | COc1cccc(NC(=O)CSc2nnc(-c3ccc(Cl)cc3)c(-c3ccc(Cl)cc3)n2)c1 [Compound K216-0957]
 |  |  | 17% | 24% | 10.1% |  | 17% | 24% | 10.1% |  |  |  |  | O=C(CSc1nnc(-c2ccccc2)c(-c2ccccc2)n1)Nc1cccc(Cl)c1 [Compound K784-2268]
 |  |  |  |  |  |  |  |  |  |  | 9.52% | 10.8055% | 8.234% | O=C(CSc1nnc(-c2ccccc2)c(-c2ccccc2)n1)Nc1ccccc1Cl [Compound K784-2269]
 |  |  | 10.5% | 10.5% |  |  | 10.5% | 10.5% |  |  |  |  |  | COc1cccc(NC(=O)CSc2nnc(-c3ccccc3)c(-c3ccccc3)n2)c1 [Compound K784-2273]
 |  |  | 11.6% | 17% | 6.27% |  | 11.6% | 17% | 6.27% |  |  |  |  | O=C(c1cn(-c2cccc(Cl)c2)nn1)N1CCCC1 [Compound L524-0322]
 |  |  | 15.7% | 14.7% | 16.7% |  | 15.7% | 14.7% | 16.7% |  |  |  |  | O=C(NC1CC1)c1cn(-c2cccc(Cl)c2)nn1 [Compound L524-0361]
11.8% | 16.2% | 7.41% | 11.8% | 16.2% | 7.41% |  |  |  |  |  |  |  |  | NC(=O)C1CCCN(c2nc3c(-c4ccccc4)csc3c(=O)[nH]2)C1 (stereo not drawn) [Compound Z250-1266]
13.3% | 16.6% | 9.99% | 13.3% | 16.6% | 9.99% |  |  |  |  |  |  |  |  | Cc1ccc(-c2csc3c(=O)[nH]c(N4CCCC(C(N)=O)C4)nc23)cc1 (stereo not drawn) [Compound Z250-1348]

Further lines, the molecule ahead of its results:

SMILES | inhibition at 25 µM [1] | inhibition at 25 µM [2] | inhibition at 25 µM [3] | inhibition at 25 µM [4] | inhibition at 25 µM [5] | inhibition at 25 µM [6] | inhibition at 25 µM [7] | inhibition at 25 µM [8] | inhibition at 25 µM [9] | inhibition at 25 µM [10] | inhibition at 25 µM (first round of screening, 25 μM, read-out: single point activities / individual data points, inhibition of the Fn14-TWEAK interaction) | % Reduction in TWEAK Binding, Average (Table 4, second screening iteration, 25 μM, average of duplicate) | % Reduction in TWEAK Binding, Data 1 (Table 4, second screening iteration, 25 μM, replicate 1) | % Reduction in TWEAK Binding, Data 2 (Table 4, second screening iteration, 25 μM, replicate 2)
CCOCCCNC(=O)C(=O)NCc1n[nH]c(=O)c2ccccc12 [Compound F044-0058] | 12% | 9.99% | 14.1% | 12% | 9.99% | 14.1% |  |  |  |  |  |  |  | 
O=C(NCc1ccccc1)C(=O)NCc1n[nH]c(=O)c2ccccc12 [Compound F044-0075] | 13% | 13.2% | 12.8% | 13% | 13.2% | 12.8% | < 15% |  |  |  |  |  |  | 
O=C(NCc1ccccc1Cl)C(=O)NCc1n[nH]c(=O)c2ccccc12 [Compound F044-0076] | 10.9% | 8.55% | 13.2% | 10.9% | 8.55% | 13.2% |  | 1.62% | -2.3% | 5.55% |  |  |  | 
O=C(NCc1ccc(F)cc1)C(=O)NCc1n[nH]c(=O)c2ccccc12 [Compound F044-0077] | 11.5% | 12.6% | 10.4% | 11.5% | 12.6% | 10.4% |  |  |  |  |  |  |  | 
O=C(NCc1cccnc1)C(=O)NCc1n[nH]c(=O)c2ccccc12 [Compound F044-0083] | 11% | 11.1% | 10.8% | 11% | 11.1% | 10.8% |  |  |  |  |  |  |  | 
CCC(=O)Nc1ccccc1-c1nnc(SC(CC)C(=O)Nc2cccc(OC)c2)[nH]c1=O (stereo not drawn) [Compound F151-0392] | 11.6% | 9.04% | 14.2% | 11.6% | 9.04% | 14.2% |  |  |  |  |  |  |  | 
CCC(=O)Nc1ccccc1-c1nnc(SC(C)C(=O)Nc2cccc(Cl)c2C)[nH]c1=O (stereo not drawn) [Compound F151-0419] | 10.9% | 8.79% | 13% | 10.9% | 8.79% | 13% |  |  |  |  |  |  |  | 
CCC(=O)Nc1ccccc1-c1nnc(SC(CC)C(=O)Nc2cc(OC)cc(OC)c2)[nH]c1=O (stereo not drawn) [Compound F151-0435] | 15.5% | 18.9% | 12.2% | 15.5% | 18.9% | 12.2% | > 15% |  |  |  |  |  |  | 
CCC(=O)Nc1ccccc1-c1nnc(SCC(=O)Nc2cc(C)ccc2C)[nH]c1=O [Compound F151-0458] | 11.1% | 10.7% | 11.5% | 11.1% | 10.7% | 11.5% |  |  |  |  |  |  |  | 
CCC(=O)Nc1ccccc1-c1nnc(SCC(=O)Nc2ccc(OC)cc2)[nH]c1=O [Compound F151-0485] | 10.3% | 14.7% | 5.86% | 10.3% | 14.7% | 5.86% |  |  |  |  |  |  |  | 
O=C(CSc1ccccc1)Nc1cccc2nsnc12 [Compound F281-0079] |  |  |  | 14.6% | 15.5% | 13.7% |  | 14.6% | 15.5% | 13.7% |  |  |  | 
O=C(CSc1nnc(-c2ccccc2)c(-c2ccccc2)n1)Nc1ccccc1 [Compound G003-0114] |  |  |  | 13% | 14.7% | 11.3% |  | 13% | 14.7% | 11.3% |  |  |  | 
O=C(CSc1nc2c(cnn2-c2ccccc2)c(=O)[nH]1)NCc1ccc(F)cc1 [Compound G873-0031] | 14.2% | 20.3% | 8.06% | 14.2% | 20.3% | 8.06% |  |  |  |  | > 15% |  |  | 
